According to ChEMBL document CHEMBL1146628, “Identification of TNF-alpha inhibitors from a split-pool library based on a tyrosine-proline peptidomimetic scaffold” (Bioorg Med Chem Lett, 2003):

How the values were obtained:
Details in all cases: Homo sapiens
A549 [1] = assay: Inhibitory concentration (resynthesized pure material) against TNF-alpha induced apoptosis of A549 cells; type: functional, cell-based
A549 [2] = assay: Inhibitory concentration (solid phase) against TNF-alpha induced apoptosis of A549 cells; type: functional, cell-based
A549 [3] = assay: Inhibitory concentration (resynthesized pure material) against TNF-alpha induced apoptosis of A549 cells at 20 uM; type: functional

| Compound | IC50 (A549 [1]) [µM] | IC50 (A549 [2]) [µM] | inhibition at 20 µM (A549 [3]) [%] |
| --- | --- | --- | --- |
| CCCCCN(CCCCC)C(=O)[C@@H]1C[C@H](Oc2ccc(C[C@H](NC(=O)C(CC)CC)C(N)=O)cc2)CN1C(=O)c1cnc2ccccc2c1 | 10.1 | – | – |
| CCCCCN(CCCCC)C(=O)[C@@H]1C[C@H](Oc2ccc(C[C@H](NC(=O)Cc3ccccc3)C(N)=O)cc2)CN1C(=O)c1cnc2ccccc2c1 | 8.1 | 11.1 | – |
| CCCCCN(CCCCC)C(=O)[C@@H]1C[C@H](Oc2ccc(C[C@H](NC(=O)c3cnc4ccccc4c3)C(N)=O)cc2)CN1C(=O)c1cnc2ccccc2c1 | 12.9 | 15.4 | – |
| CCCCCN(CCCCC)C(=O)[C@@H]1C[C@H](Oc2ccc(C[C@H](NC(=O)CC)C(N)=O)cc2)CN1C(=O)c1cnc2ccccc2c1 | – | – | 35 |
